Test results reported in patent US10183912B2, “HDMX inhibitors and their use for cancer treatment” (priority 2014, dated 2019).
Where two headings read alike, the source gives them in different places. Values belong to the compound of their own block, whether it stands above or below them.

Experiments:
OCI cell line = assay: IC50 / cell killing activity on OCI cell line; assay type: cell-based
[1] = system: OCI-AML3 (OCI) cells overexpressing HDMX; assay: Cell killing of OCI cells overexpressing HDMX versus parental cells; assay type: cell-based; details: 72 hr trypan blue
[2] = system: HCT116 p53-wild-type cells; assay: Cell cycle analysis by PI staining, HCT116 p53-wild-type cells; assay type: cell-based; details: after 24 hr of treatment with CTX1 (2 μM); decrease from 20%
HCT116 p53-null cells [3] = assay: Cell cycle analysis by PI staining, HCT116 p53-null cells; assay type: cell-based; details: after 24 hr of treatment with CTX1 (2 μM); reduction from 25%
primary human AML cells = assay: Survival of NSG mice injected with primary human AML cells; assay type: in vivo
HDM2/p53 = HDM2/p53 (Homo sapiens, UniProt Q00987); assay: ELISA of recombinant HDM2/p53 interaction; assay type: biochemical
IMR90 cells = assay: Cell death (trypan blue) in IMR90 fibroblast model with HDMX, HDM2 or shp53; assay type: cell-based; details: 72 hr
GST-FXR = assay type: binding; details: immunoprecipitation / streptavidin pull-down
[4] = system: HCT116 p53-wild type cells; assay: Annexin-V staining for apoptosis, HCT116 p53-wild type cells; assay type: cell-based; details: combination of CTX1 (3 μM) and nutlin-3 (5 μM), 72 hr
HCT116 p53-null cells [5] = assay: Annexin-V staining for apoptosis, HCT116 p53-null cells; assay type: cell-based; details: combination of CTX1 (3 μM) and nutlin-3 (5 μM), 72 hr
MCF7 cells = details: CTX1 3 μM
GST-HDMX = molecular target: T1, GST-HDMX (Homo sapiens, UniProt O15151); details: immunoprecipitation / streptavidin pull-down
T1 sequence (O15151 1-490): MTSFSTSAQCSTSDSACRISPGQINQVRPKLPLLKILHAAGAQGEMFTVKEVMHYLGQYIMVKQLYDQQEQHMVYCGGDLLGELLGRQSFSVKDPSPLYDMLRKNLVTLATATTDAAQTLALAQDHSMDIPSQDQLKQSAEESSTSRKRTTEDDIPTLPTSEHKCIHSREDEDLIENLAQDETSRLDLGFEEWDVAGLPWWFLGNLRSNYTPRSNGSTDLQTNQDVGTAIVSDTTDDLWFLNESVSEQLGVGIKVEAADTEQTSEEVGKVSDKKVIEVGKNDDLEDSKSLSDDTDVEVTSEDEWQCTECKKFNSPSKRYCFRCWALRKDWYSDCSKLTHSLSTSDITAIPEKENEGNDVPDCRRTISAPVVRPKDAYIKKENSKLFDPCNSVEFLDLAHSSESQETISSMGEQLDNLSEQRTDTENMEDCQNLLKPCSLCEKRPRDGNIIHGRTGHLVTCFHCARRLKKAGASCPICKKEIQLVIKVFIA

HDMX [6] = molecular target: T2, HDMX (Homo sapiens, UniProt O15151); assay: Surface plasmon resonance binding to immobilized recombinant HDMX; details: doses up to 12.5 μM
T2 sequence (O15151 1-490): T1 sequence (O15151 1-490)

HDMX [7] = molecular target: T2, HDMX; assay: Spectral (absorbance) studies after size exclusion chromatography with HDMX; assay type: binding; details: absorbance pattern after removal of free compound
HDMX/p53 = molecular target: T3, HDMX/p53 (Homo sapiens, UniProt O15151); assay: ELISA of recombinant HDMX/p53 interaction; assay type: biochemical
T3 sequence (O15151 1-490): T1 sequence (O15151 1-490)

P53-HDMX = molecular target: T4, P53-HDMX (Homo sapiens, UniProt O15151); assay: Co-immunoprecipitation of P53 and HDMX; assay type: biochemical; details: compared to DMSO and Nutlin
T4 sequence (O15151 1-490): T1 sequence (O15151 1-490)

Chain of HDM2/p53 (Q00987 whole entry): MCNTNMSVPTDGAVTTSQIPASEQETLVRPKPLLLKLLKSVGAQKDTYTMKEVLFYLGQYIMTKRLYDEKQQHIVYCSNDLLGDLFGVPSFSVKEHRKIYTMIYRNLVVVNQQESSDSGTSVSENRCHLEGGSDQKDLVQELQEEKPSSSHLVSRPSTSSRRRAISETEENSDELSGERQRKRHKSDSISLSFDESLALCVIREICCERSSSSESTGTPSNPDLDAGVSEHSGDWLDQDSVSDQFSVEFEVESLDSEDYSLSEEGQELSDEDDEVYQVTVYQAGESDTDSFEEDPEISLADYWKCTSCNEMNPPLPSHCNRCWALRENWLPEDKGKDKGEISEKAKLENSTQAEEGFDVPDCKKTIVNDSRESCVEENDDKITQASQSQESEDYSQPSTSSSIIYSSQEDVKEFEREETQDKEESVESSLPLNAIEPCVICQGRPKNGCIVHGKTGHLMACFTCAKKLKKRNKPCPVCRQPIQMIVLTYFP

Compound: Nc1ccc2cc3ccc(N)c(I)c3nc2c1 [INVA3Z-46-2]
IC50 (OCI cell line; OCI cell line, read-out: IC 50): 7.9 µM

Compound: Nc1ccc(Nc2c3ccc([N+](=O)[O-])cc3nc3cc([N+](=O)[O-])ccc23)cc1 [INVA3Z-42-1]
IC50 (OCI cell line; read-out: IC 50): 0.13 µM

Compound: N#Cc1ccc(Nc2c3ccccc3nc3ccccc23)cc1 [INVA3Z-29-2]
IC50 (OCI cell line; OCI cell line, read-out: IC 50): > 8 µM

Compound: Nc1ccc(Nc2c3ccccc3nc3cc([N+](=O)[O-])ccc23)cc1 [INVA3Z-32-1]
IC50 (OCI cell line; OCI cell line, read-out: IC 50): 4.8 µM

Compound: N#Cc1c2ccccc2nc2ccccc12 [INVA3Z-6-3]
IC50 (OCI cell line; OCI cell line, read-out: IC 50): 13.4 µM

Compound: O=S(=O)(CCCOCc1ccccc1)Nc1ccc(Nc2c3ccccc3nc3ccccc23)cc1 [INVA3Z-10-1]
IC50 (OCI cell line; OCI cell line, read-out: IC 50): 9.8 µM

Compound: Nc1cccc(Nc2c3ccccc3nc3ccccc23)c1 [INVA3Z-38-1]
IC50 (OCI cell line; OCI cell line, read-out: IC 50): 11.8 µM

Compound: N#Cc1c2ccc([N+](=O)[O-])cc2nc2cc([N+](=O)[O-])ccc12 [INVA3Z-6-1]
IC50 (OCI cell line): 14.1 µM

Compound: Cc1c([N+](=O)[O-])ccc2c(Cl)c3ccc([N+](=O)[O-])cc3nc12 [INVA3Z-63-1]
IC50 (OCI cell line): > 15 µM

Compound: COc1ccc(C2=N[C@@H](c3ccc(Cl)cc3)[C@@H](c3ccc(Cl)cc3)N2C(=O)N2CCNC(=O)C2)c(OC(C)C)c1 [nutlin-3]
sensitivity to cell killing versus parental cells [1]: reduced activity

Compound: N#Cc1c2ccc(N)cc2nc2cc(N)ccc12 [CTX1]
S phase [2]: 4% | S phase (HCT116 p53-null cells [3]): 15% | survival time (primary human AML cells; CTX1 (30 mg/kg i.p.) in combination with nutlin-3 (200 mg/kg p.o.)): significantly increased survival time | survival of mice (primary human AML cells; single agent, 30 mg/kg i.p.): significantly enhanced the survival | disruption of HDM2/p53 interaction (HDM2/p53): not HDM2/p53 | cell death (IMR90 cells; HDMX-expressing cells (Vector or HDMX), 1, 2.5 and 5 μM): induced significant p53-dependent cell death | cell death (IMR90 cells; cells with HDM2 overexpression or p53 knocked down by shRNA): not cells in which p53 is inactivated by HDM2 overexpression | direct interaction with GST-FXR (GST-FXR): not unrelated proteins such as GST-FXR | induction of apoptosis [4]: synergistic induction of apoptosis | induction of apoptosis (HCT116 p53-null cells [5]): not p53-null cells | p53 induction (MCF7 cells): induces p53 rapidly

Compound: OCCNc1ccc(Nc2c3ccccc3nc3ccccc23)cc1 [INVA3Z-19-1]
IC50 (OCI cell line; OCI cell line, read-out: IC 50): 5.8 µM

Compound: O=C(O)CCCC[C@@H]1SC[C@@H]2NC(=O)N[C@@H]21 [Biotin]
direct interaction with GST-HDMX (GST-HDMX): not to bind with HDMX

Compound: [O-][n+]1c2ccccc2c(Cl)c2ccccc21 [INVA3Z-41-1]
IC50 (OCI cell line; OCI cell line, read-out: IC 50): > 15 µM

Compound: O=C(CCl)Nc1c2ccccc2nc2ccccc12 [INVA3Z-17-2]
IC50 (OCI cell line; OCI cell line, read-out: IC 50): 13.6 µM

Compound: O=C(CCCCC1SCC2NC(=O)NC21)Nc1ccc(Nc2c3ccccc3nc3ccccc23)cc1 (centres unmarked) [INVA3Z-31-1]
IC50 (OCI cell line; read-out: IC 50): 11.9 µM

binding to HDMX using SPR (HDMX [6]): did not demonstrate any binding | binding to HDMX by spectral studies (HDMX [7]): not observed
Compound: Nc1c2ccccc2nc2ccccc12 [9-AA, 9-aminoacridine]

Compound: Nc1ccc(Nc2c3ccccc3nc3ccccc23)c(N)c1 [INVA3Z-61-2]
IC50 (OCI cell line; OCI cell line, read-out: IC 50): 4.3 µM

Compound: O=[N+]([O-])c1ccc2c(Cl)c3ccccc3nc2c1 [INVA3Z-28-1]
IC50 (OCI cell line; OCI cell line, read-out: IC 50): 7.8 µM

Compound: Nc1ccc2cc3ccc(N)c(-c4ccccc4)c3nc2c1-c1ccccc1 [INVA3Z-52-2]
IC50 (OCI cell line; OCI cell line, read-out: IC 50): 3.4 µM

Compound: CC(=O)Nc1ccc(Nc2c3ccc([N+](=O)[O-])cc3nc3cc([N+](=O)[O-])ccc23)cc1 [INVA3Z-50-2]
IC50 (OCI cell line): 1.4 µM | disruption of HDMX/p53 interaction (HDMX/p53): Identical results were obtained | disruption of HDM2/p53 interaction (HDM2/p53): Identical results were obtained | disruption of P53-HDMX protein interaction (P53-HDMX): disrupts

Compound: Nc1ccc(Nc2c3ccccc3nc3ccccc23)cc1 [INVA3Z-5-2]
IC50 (OCI cell line; OCI cell line, read-out: IC 50): 4.7 µM

Compound: O=C(CCCCC1SCC2NC(=O)NC21)Nc1ccc(Nc2c3ccc([N+](=O)[O-])cc3nc3cc([N+](=O)[O-])ccc23)cc1 (centres unmarked) [INVA3Z-48-2]
IC50 (OCI cell line): 8.2 µM

Compound: Nc1ccc(Nc2c3ccccc3[n+]([O-])c3ccccc23)cc1 [INVA3Z-41-2]
IC50 (OCI cell line; OCI cell line, read-out: IC 50): 14.3 µM

Compound: O=[N+]([O-])c1ccc2c(Cl)c3ccc([N+](=O)[O-])cc3nc2c1 [INVA3Z-1-1]
IC50 (OCI cell line): 13.5 µM

Compound: ClCCN(CCCl)c1c2ccccc2nc2ccccc12 [INVA3Z-29-1]
IC50 (OCI cell line): > 8 µM

Compound: Nc1ccn([C@@H]2O[C@H](CO)[C@@H](O)[C@@H]2O)c(=O)n1 [cytarabine, reference compound]
efficacy in this model system (primary human AML cells; standard AML therapeutic): does not demonstrate efficacy

Compound: CC(=O)Nc1ccc2c(Nc3ccc(N)cc3)c3ccccc3nc2c1 [INVA3Z-40-2]
IC50 (OCI cell line; OCI cell line, read-out: IC 50): 13.9 µM

Compound: Cc1ccc2nc3cc([N+](=O)[O-])ccc3c(Nc3ccc(N)cc3)c2c1[N+](=O)[O-] [INVA3Z-65-2]
IC50 (OCI cell line): 11.5 µM

Compound: CC(=O)Nc1cccc(Nc2c3ccccc3nc3ccccc23)c1 [INVA3Z-39-1]
IC50 (OCI cell line; OCI cell line, read-out: IC 50): 12.1 µM

Compound: CC(=O)Nc1ccc2c(Cl)c3ccccc3nc2c1 [INVA3Z-40-1]
IC50 (OCI cell line; OCI cell line, read-out: IC 50): 13.2 µM

Compound: CC(=O)Nc1ccc(Nc2c3ccccc3nc3ccccc23)cc1 [INVA3Z-36-1]
IC50 (OCI cell line; OCI cell line, read-out: IC 50): 4.9 µM

Compound: [N-]=[N+]=NCCCS(=O)(=O)Nc1ccc(Nc2c3ccccc3nc3ccccc23)cc1 [INVA3Z-13-1]
IC50 (OCI cell line; OCI cell line, read-out: IC 50): 9.9 µM

Compound: Nc1ccc(Nc2c3ccc([N+](=O)[O-])cc3nc3cc([N+](=O)[O-])ccc23)cc1N [INVA3Z-66-1]
IC50 (OCI cell line): > 15 µM

Compound: Nc1ccc(Nc2c3ccccc3nc3cc(N)ccc23)cc1 [INVA3Z-32-2]
IC50 (OCI cell line; OCI cell line, read-out: IC 50): 4.7 µM

Compound: Cc1c([N+](=O)[O-])ccc2c(Nc3ccc(N)cc3)c3ccc([N+](=O)[O-])cc3nc12 [INVA3Z-63-2]
IC50 (OCI cell line): > 15 µM

Compound: O=[N+]([O-])c1ccc2c(Cl)c3cc([N+](=O)[O-])ccc3nc2c1 [INVA3Z-58-1]
IC50 (OCI cell line): > 15 µM

Compound: [N-]=[N+]=Nc1c2ccccc2nc2ccccc12 [INVA3Z-55-1]
IC50 (OCI cell line; OCI cell line, read-out: IC 50): 3.2 µM

Compound: Nc1ccc2cc3ccc(N)c(-c4ccccc4)c3nc2c1I [INVA3Z-52-3]
IC50 (OCI cell line; OCI cell line, read-out: IC 50): 7.8 µM
